Data as given in ChEMBL document CHEMBL1201862, “PubChem BioAssay data set” (2004).
Active and inactive are the calls of the source.

Assays:
[1] = microbe, parasite or virus in culture; type: functional; settings: Mycobacterium tuberculosis
Protein RecA = biological target: T1, Protein RecA (Mycobacterium tuberculosis, UniProt P9WHJ3); assay: Fluorescence Cell-Free Homogeneous Dose Retest to Identify Inhibitors of RecA-Intein Splicing Activity. [Related pubchem assays (depositor defined):AID2097, AID2223, AID489010, AID492950]; type: functional
T1 sequence (P9WHJ3 whole entry): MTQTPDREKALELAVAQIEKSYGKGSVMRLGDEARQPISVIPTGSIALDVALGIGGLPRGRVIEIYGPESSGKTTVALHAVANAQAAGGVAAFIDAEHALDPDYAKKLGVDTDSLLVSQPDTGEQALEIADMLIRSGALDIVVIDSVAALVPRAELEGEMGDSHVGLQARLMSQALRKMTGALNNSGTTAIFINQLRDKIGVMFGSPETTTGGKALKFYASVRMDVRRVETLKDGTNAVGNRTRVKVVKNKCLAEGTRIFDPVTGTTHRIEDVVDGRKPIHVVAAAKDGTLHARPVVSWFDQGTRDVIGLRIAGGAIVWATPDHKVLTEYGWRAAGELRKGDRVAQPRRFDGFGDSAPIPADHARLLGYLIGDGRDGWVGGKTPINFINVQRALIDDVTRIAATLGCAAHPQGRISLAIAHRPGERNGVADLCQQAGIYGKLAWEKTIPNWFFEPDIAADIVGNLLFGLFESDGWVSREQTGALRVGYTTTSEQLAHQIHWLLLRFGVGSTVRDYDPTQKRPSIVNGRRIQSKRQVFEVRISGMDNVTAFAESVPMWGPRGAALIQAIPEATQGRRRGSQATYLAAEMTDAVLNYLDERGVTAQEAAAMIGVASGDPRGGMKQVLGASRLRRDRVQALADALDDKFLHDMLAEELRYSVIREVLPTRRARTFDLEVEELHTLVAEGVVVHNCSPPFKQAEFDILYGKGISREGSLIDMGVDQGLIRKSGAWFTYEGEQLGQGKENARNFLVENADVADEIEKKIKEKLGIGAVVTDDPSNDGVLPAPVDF

[2] = biological target: T2, Replicative DNA helicase DnaB (Mycobacterium tuberculosis, UniProt P9WMR3); assay: DnaB intein splicing inhibitors, dose response, biochemical, cell-free fluorescence (AID 449749); type: functional
T2 sequence (P9WMR3 whole entry): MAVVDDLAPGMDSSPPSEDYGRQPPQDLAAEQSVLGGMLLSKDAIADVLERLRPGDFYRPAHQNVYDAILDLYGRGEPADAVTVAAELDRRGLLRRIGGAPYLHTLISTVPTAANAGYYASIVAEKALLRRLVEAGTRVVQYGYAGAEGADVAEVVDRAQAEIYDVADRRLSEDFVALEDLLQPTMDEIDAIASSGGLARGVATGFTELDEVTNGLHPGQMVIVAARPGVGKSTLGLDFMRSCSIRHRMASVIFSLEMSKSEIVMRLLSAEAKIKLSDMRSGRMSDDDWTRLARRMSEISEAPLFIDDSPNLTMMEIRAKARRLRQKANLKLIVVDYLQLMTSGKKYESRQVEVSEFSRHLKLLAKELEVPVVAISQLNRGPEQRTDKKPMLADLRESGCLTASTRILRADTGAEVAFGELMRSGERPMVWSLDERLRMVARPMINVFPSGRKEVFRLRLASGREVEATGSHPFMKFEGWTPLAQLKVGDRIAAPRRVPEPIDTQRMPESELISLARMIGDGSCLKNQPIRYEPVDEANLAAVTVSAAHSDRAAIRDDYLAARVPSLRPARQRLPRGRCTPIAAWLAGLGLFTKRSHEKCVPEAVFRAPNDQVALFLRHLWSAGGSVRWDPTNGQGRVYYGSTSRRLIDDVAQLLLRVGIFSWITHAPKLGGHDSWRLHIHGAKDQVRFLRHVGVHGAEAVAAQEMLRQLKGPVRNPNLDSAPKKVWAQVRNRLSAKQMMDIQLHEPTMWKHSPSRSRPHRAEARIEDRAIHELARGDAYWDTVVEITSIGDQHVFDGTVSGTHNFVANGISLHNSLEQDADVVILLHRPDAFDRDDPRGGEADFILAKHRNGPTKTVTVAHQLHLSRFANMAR

[3] = biological target: Induced myeloid leukemia cell differentiation protein Mcl-1 (Homo sapiens, UniProt Q07820); type: functional
Cytochrome P450 2C9 = Cytochrome P450 2C9 (Homo sapiens, UniProt P11712)
Cytochrome P450 3A4 = Cytochrome P450 3A4 (Homo sapiens, UniProt P08684);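 further: CYP3A4 tested as one member of a cytochrome P450 panel screen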
Cytochrome P450 2D6 = Cytochrome P450 2D6 (Homo sapiens, UniProt P10635);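 further: CYP2D6 member of a cytochrome P450 panel assay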
Cytochrome P450 1A2 = biological target: T3, Cytochrome P450 1A2 (Homo sapiens, UniProt P05177);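 further: PubChem cytochrome P450 panel assay, CYP1A2 panel member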
T3 sequence (P05177 whole entry): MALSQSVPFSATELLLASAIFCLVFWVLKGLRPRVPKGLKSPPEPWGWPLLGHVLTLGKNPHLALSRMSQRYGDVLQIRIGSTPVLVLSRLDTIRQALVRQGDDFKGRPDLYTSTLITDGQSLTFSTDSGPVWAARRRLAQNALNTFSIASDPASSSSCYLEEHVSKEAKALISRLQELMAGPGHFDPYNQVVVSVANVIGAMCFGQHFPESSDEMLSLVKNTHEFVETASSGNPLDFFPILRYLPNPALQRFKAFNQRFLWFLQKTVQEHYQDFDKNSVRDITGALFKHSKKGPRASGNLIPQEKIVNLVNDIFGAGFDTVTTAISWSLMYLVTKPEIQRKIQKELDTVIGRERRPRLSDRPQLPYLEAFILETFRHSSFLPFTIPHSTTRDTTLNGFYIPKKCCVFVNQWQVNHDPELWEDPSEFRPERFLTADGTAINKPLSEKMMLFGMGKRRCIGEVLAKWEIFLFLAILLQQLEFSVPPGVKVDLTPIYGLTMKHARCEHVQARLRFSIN

[4] = Luminescence Cell-Based Dose Retest to Confirm Inhibitors of Cancer Stem Cells. [Related pubchem assays (depositor defined):AID2717, AID2721]; type: functional; settings: Homo sapiens
[5] = P. falciparum Dd2 growth inhibitors, dose response, SYBR Green, cherry-picked samples (AID 1159567); type: functional, cell-based
Streptokinase A = biological target: T4, Streptokinase A (Streptococcus pyogenes serotype M1, UniProt P10520); assay: viability-normalized secreted streptokinase activity reduction – plasminogen activation absorbance, OD405, dose response (AID 1914); type: functional, Streptococcus pyogenes M1 GAS;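 further: secreted streptokinase activity via plasminogen activation per viability signal from cell pellet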
T4 sequence (P10520 whole entry): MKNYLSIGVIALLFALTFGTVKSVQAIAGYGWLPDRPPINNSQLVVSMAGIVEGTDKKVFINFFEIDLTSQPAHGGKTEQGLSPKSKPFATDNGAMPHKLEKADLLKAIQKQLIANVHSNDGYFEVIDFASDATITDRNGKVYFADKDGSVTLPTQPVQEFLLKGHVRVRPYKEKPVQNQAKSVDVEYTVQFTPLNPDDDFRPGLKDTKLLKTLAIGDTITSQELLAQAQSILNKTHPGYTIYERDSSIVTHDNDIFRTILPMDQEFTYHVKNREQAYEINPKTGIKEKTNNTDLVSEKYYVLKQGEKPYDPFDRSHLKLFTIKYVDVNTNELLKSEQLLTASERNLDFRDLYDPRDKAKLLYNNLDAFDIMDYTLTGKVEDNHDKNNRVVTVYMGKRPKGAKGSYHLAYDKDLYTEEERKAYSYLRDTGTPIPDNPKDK

[6] = tested on: Streptococcus sp. 'group A'; assay: Streptococcus pyogenes SK(-)GAS viability under kanamycin – luminescence, BacTiterGlo, confirmation, counter-screen for streptokinase expression inhibitor project, dose response (AID 1900); type: functional, organism-based
Streptococcus = assay: GAS UMAA2166 growth inhibition – luminescence, BacTiterGlo, counter-screen for streptokinase expression inhibitor project, dose response (AID 1915); type: functional, organism-based;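 further: potency for reduction of bacterial viability or growth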
Cytochrome P450 2C19 = Cytochrome P450 2C19 (Homo sapiens, UniProt P33261); assay: Cytochrome panel assay with activity outcomes. Panel member name: p450-cyp2c19 Compounds with AC50 equal or less than 10 uM are considered active; type: functional; settings: read-out: AC50
[7] = biological target: T5, Heat shock factor protein 1 (Mus musculus, UniProt P38532); assay: enhancement of HSF1-driven luciferase signal – cell-based, NIH3T3, luminescence, dose retest, confirmation (AID 435004); type: functional;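 further: stress induced by proteasome inhibitor MG132 added 30 min after compound; luciferase reporter driven by HSF1 response element in NIH3T3 cells; actives raise luminescence as potentiators of the MG132 stress response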
T5 sequence (P38532 whole entry): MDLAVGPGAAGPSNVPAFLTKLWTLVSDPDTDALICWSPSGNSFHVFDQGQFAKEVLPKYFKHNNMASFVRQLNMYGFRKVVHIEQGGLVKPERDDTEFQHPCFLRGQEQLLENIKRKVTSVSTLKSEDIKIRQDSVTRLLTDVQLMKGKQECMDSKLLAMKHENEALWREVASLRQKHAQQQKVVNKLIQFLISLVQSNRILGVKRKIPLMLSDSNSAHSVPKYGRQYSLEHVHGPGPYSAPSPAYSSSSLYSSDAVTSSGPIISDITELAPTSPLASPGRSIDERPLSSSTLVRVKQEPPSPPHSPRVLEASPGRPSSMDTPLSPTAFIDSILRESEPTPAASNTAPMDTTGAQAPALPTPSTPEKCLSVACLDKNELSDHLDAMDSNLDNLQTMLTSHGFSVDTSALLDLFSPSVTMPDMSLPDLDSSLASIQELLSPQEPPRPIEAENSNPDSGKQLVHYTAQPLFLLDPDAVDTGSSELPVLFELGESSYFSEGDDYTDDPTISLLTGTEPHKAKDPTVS

Sequence of Cytochrome P450 2C9 (P11712 whole entry): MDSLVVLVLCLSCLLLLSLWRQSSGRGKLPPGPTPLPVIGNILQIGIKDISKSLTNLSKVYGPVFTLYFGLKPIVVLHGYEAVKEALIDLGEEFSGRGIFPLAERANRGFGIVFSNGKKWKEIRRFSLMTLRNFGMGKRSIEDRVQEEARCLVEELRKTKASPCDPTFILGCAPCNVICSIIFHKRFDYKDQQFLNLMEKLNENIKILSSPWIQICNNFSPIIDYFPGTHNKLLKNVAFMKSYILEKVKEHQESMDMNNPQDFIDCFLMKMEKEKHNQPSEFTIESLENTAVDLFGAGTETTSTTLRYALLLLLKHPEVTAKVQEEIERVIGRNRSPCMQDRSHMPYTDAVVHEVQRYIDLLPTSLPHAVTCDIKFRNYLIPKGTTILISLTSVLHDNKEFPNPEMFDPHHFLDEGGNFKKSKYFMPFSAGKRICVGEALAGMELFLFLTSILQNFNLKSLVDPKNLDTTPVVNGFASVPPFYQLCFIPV
Sequence of Induced myeloid leukemia cell differentiation protein Mcl-1 (Q07820 whole entry): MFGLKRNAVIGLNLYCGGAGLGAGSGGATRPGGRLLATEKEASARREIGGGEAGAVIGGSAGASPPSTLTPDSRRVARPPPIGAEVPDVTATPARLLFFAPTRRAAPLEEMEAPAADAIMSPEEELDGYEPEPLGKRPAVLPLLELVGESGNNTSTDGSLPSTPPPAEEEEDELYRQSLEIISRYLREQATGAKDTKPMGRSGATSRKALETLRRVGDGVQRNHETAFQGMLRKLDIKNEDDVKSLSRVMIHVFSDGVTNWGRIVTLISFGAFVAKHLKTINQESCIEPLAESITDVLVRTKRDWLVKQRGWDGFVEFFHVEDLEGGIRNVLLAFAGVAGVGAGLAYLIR
Sequence of Cytochrome P450 2D6 (P10635 whole entry): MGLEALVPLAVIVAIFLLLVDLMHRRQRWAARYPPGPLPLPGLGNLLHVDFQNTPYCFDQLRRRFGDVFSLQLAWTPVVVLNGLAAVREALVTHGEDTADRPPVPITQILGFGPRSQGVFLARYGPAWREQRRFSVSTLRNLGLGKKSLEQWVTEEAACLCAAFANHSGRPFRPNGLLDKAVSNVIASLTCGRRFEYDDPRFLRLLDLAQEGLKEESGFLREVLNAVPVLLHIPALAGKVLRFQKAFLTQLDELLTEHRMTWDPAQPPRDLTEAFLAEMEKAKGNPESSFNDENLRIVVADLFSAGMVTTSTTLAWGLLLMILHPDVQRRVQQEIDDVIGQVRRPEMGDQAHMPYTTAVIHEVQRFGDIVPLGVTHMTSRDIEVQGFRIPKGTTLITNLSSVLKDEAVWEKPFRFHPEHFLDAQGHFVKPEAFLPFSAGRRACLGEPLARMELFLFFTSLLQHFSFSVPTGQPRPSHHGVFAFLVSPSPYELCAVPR
Sequence of Cytochrome P450 3A4 (P08684 whole entry): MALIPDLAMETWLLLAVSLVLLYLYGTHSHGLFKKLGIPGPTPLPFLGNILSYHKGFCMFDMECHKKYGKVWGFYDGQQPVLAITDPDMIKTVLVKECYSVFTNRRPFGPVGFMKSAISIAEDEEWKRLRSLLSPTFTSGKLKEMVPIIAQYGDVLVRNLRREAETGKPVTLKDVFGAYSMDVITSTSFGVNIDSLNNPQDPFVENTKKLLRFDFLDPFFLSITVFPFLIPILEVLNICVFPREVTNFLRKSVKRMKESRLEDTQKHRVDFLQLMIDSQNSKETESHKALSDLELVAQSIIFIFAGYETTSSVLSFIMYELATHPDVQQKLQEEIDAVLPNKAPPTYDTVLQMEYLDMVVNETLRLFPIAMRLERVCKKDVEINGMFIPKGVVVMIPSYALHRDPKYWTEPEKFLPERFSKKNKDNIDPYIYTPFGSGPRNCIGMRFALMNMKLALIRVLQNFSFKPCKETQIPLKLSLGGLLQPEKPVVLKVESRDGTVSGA
Sequence of Cytochrome P450 2C19 (P33261 whole entry): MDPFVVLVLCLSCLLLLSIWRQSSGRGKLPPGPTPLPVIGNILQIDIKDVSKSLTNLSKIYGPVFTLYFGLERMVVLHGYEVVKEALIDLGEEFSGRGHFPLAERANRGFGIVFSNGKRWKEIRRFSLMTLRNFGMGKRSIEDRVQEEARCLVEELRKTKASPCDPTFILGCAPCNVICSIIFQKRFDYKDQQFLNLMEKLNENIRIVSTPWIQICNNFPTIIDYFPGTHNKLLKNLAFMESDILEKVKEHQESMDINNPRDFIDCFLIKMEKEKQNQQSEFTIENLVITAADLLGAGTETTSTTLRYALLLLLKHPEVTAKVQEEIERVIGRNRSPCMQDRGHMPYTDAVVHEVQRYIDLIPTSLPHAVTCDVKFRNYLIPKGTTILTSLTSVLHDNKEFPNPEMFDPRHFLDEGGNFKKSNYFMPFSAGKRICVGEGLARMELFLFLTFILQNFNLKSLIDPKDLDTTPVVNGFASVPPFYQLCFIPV

Compound: O=C(Nc1ccc(Cl)cc1)N(Cc1nc(O)c2ccccc2n1)Cc1cccs1
- CC50 [1]: > 40 µM (active)

Compound: Cc1nc([N+](=O)[O-])c(Sc2nc3ccccc3[nH]2)n1Cc1ccccc1
- EC50 (Protein RecA): 12.3 µM (active)
- AC50 [2]: 15.3 µM (active)

Compound: CCN(c1ccc(NC(=O)CCNC(=O)c2ccco2)cc1)C(C)C
- IC50 [3]: 3.29 µM (not active)

Compound: O=c1c(-c2cc(F)cc(F)c2)nc2cncnc2n1C1CC1
- AC50 (Cytochrome P450 2C9): inconclusive
- AC50 (Cytochrome P450 3A4): 7.94 µM (inconclusive)

Compound: COCc1n[nH]c2c1C(c1ccsc1)C(C#N)=C(N)O2 (centres undefined)
- EC50 (Protein RecA): 4.35 µM (active)
- AC50 [2]: 21.1 µM (active)

Compound: Cc1cnc(CNc2ncnc3ccc(-c4cccc(NS(C)(=O)=O)c4)cc23)cn1
- AC50 (Cytochrome P450 2C9): inconclusive
- AC50 (Cytochrome P450 2D6): 25.1 µM (inconclusive)

Compound: COc1ccc(C)cc1NC(=O)c1cc2cc3ccc(C)cc3nc2o1
- AC50 (Cytochrome P450 2C9): inconclusive
- AC50 (Cytochrome P450 1A2): 1.26 µM (inconclusive)

Compound: O=C(Nc1ccn(Cc2ccccc2F)n1)c1ccc(COc2ccccc2Cl)cc1
- CC50 [1]: > 40 µM (active)
- AC50 [4]: 1.02 µM (active)

Compound: Cc1cccc(S(=O)(=O)C(C#N)c2nc3ccccc3nc2N2CCCC2)c1 (centres undefined)
- EC50 (Protein RecA): > 380 µM (inactive)

Compound: O=C(Nc1ccc(N2CCOCC2)cc1)Nc1ccc2nsnc2c1
- EC50 (Protein RecA): > 380 µM (inactive)
- AC50 [2]: 170 µM (active)

Compound: CCC(=O)Nc1ccc2c(c1)OC[C@@H](C)N(Cc1ccccc1)C[C@@H](C)[C@H](OC)CN(C)C2=O
- AC50 [5]: 5.57 µM (active)

Compound: COC(=O)c1ccc(/N=C2\C(Cl)=C(O)OC2OC(=O)c2ccccc2)cc1 (centres undefined)
- EC50 (Protein RecA): 17.8 µM (active)
- AC50 [2]: 10.9 µM (active)

Compound: CCn1nc(NC(=O)c2ccncc2)c2cc3cc(C)ccc3nc21
- CC50 [1]: > 40 µM (active)
- EC50 (Streptokinase A): > 150 µM (not active)
- EC50 [6]: 1.88 µM (active)
- EC50 (Streptococcus): 11.4 µM (active)

Compound: Cc1cc(=O)oc2cc(Oc3ccc([N+](=O)[O-])cc3C(F)(F)F)ccc12
- CC50 [1]: > 40 µM (active)

Compound: Cn1c(=O)c(C(=O)NNC(=O)c2cccc(Cl)c2)c(O)c2ccccc21
- CC50 [1]: > 40 µM (active)

Compound: Cc1ccc(C)c(NC(=O)c2cc(-c3ccccc3)nn2-c2ccccc2)c1
- CC50 [1]: > 40 µM (active)
- AC50 [4]: 33.9 µM (active)

Compound: CN(C)c1ccc(/C=c2\sc3nc(-c4ccccc4)nn3c2=O)cc1
- IC50 [3]: 5.67 µM (active)

Compound: CCOC(=O)N1CCN(C(=O)c2ccc(OC)c(OC)c2)CC1
- AC50 (Cytochrome P450 2C9): inconclusive
- AC50 (Cytochrome P450 2C19): 25.1 µM (inconclusive)

Compound: COc1ccc(N(C(=O)COc2cccc(C)c2)S(=O)(=O)c2ccc(C)cc2)cc1
- EC50 (Protein RecA): 4.53 µM (active)
- AC50 [2]: 4.29 µM (active)

Compound: Cc1nn(-c2ccccc2)c(O)c1/C=N/N1CCOCC1
- EC50 (Protein RecA): 31.7 µM (active)
- AC50 [2]: 39.3 µM (active)

Compound: N[C@@H](Cc1ncccn1)C(=O)O
- AC50 (Cytochrome P450 2C9): inconclusive

Compound: CCn1nc(C)c(/C=N/NC(=O)Cc2ccc(Cl)cc2)c1C
- IC50 [3]: < 0.4 µM (not active)

Compound: O=C1OCCC1Sc1nnc(-c2ccc(O)cc2)o1 (centres undefined)
- AC50 (Cytochrome P450 2C9): inconclusive
- AC50 (Cytochrome P450 3A4): 7.08 µM (inconclusive)

Compound: COCC(=O)Nc1ccc2c(c1)OC[C@H](C)N(Cc1ccncc1)C[C@H](C)[C@@H](OC)CN(C)C2=O
- AC50 [5]: 25.2 µM (active)

Compound: CCc1c(C)sc2nc3c(C(=O)N4CCOCC4)cc(C(=O)c4cc(F)ccc4O)cn3c(=O)c12
- CC50 [1]: > 40 µM (active)

Compound: O=C(CCN1C(=O)c2cccc3cccc(c23)C1=O)N1CCN(Cc2ccc3c(c2)OCO3)CC1
- AC50 (Cytochrome P450 2C9): inconclusive

Compound: Cc1ccccc1-c1nc(C[S+]([O-])CC(=O)NCCCN(C)c2ccccc2)c(C)o1 (centres undefined)
- AC50 (Cytochrome P450 2C9): inconclusive
- AC50 (Cytochrome P450 2D6): 25.1 µM (inconclusive)

Compound: COc1ccc2c3c(n(C)c2c1)[C@H](CO)N(C(=O)C1CC1)CC31CN(C(=O)C2CCOCC2)C1
- AC50 [5]: 22.6 µM (active)

Compound: CCOC(=O)c1c(NC(C)=O)sc2c1CCC(/C=N/CCCN(CC)CC)=C2Sc1ccccc1
- EC50 (Protein RecA): 0.229 µM (active)
- EC50 [7]: 16.6 µM (active)
- AC50 [2]: 0.239 µM (active)

Compound: COc1ccccc1NC(=O)N(C)C[C@H]1OCc2ccccc2-c2c(n(C)c3ccccc23)C(=O)N([C@@H](C)CO)C[C@@H]1C
- AC50 [5]: 4.25 µM (active)
